Measured values published in ChEMBL document CHEMBL5244202, “Structural evolution of toll-like receptor 7/8 agonists from imidazoquinolines to imidazoles” (RSC Med Chem, 2021).

Assays:
[1] = molecular target: T1, Toll-like receptor 7 (Homo sapiens, UniProt Q9NYK1); experiment: Agonist activity at human TLR7 by reporter cell based assay
T1 sequence (Q9NYK1 whole entry): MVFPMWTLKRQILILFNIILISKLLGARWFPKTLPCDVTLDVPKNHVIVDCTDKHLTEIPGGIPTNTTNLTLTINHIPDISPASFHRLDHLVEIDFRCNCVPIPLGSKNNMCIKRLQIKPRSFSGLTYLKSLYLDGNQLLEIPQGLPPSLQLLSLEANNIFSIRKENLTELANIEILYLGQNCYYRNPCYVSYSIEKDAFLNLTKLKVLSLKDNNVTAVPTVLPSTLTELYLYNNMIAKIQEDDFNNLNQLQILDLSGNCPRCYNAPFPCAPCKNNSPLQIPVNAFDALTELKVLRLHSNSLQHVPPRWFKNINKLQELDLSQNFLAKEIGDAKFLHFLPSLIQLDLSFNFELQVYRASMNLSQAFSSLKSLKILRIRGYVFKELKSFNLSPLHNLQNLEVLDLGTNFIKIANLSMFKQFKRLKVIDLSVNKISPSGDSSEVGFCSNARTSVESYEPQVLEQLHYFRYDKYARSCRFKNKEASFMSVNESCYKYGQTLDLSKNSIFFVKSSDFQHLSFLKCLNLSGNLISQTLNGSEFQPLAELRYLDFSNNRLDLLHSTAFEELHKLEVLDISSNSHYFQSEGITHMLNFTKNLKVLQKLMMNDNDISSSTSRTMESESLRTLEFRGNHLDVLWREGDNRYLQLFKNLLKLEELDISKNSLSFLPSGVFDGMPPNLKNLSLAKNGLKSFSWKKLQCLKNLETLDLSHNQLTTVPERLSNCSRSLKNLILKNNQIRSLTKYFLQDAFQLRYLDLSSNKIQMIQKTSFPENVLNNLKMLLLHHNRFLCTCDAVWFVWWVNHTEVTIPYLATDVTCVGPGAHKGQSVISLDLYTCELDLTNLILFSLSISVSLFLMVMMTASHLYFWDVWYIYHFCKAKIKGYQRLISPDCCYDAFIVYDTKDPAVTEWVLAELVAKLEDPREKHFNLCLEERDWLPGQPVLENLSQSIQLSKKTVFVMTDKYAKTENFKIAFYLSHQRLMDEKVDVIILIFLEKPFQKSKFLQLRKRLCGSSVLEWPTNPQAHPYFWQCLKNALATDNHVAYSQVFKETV

[2] = molecular target: T1, Toll-like receptor 7; experiment: Agonist activity at recombinant human TLR7 transfected in HEK293 cells assessed as induction of SEAP production incubated overnight by SEAP reporter gene based assay; format: cell-based
[3] = molecular target: T1, Toll-like receptor 7; experiment: Agonist activity at human TLR7 in HEK-Blue hTLR7 cells assessed as activation of NFkappaB by SEAP reporter gene based spectrophotometry assay; format: cell-based
[4] = molecular target: T2, Toll-like receptor 8 (Homo sapiens, UniProt Q9NR97); experiment: Agonist activity at human TLR8 in HEK-Blue hTLR8 cells assessed as activation of NFkappaB by SEAP reporter gene based spectrophotometry assay; format: cell-based
T2 sequence (Q9NR97 whole entry): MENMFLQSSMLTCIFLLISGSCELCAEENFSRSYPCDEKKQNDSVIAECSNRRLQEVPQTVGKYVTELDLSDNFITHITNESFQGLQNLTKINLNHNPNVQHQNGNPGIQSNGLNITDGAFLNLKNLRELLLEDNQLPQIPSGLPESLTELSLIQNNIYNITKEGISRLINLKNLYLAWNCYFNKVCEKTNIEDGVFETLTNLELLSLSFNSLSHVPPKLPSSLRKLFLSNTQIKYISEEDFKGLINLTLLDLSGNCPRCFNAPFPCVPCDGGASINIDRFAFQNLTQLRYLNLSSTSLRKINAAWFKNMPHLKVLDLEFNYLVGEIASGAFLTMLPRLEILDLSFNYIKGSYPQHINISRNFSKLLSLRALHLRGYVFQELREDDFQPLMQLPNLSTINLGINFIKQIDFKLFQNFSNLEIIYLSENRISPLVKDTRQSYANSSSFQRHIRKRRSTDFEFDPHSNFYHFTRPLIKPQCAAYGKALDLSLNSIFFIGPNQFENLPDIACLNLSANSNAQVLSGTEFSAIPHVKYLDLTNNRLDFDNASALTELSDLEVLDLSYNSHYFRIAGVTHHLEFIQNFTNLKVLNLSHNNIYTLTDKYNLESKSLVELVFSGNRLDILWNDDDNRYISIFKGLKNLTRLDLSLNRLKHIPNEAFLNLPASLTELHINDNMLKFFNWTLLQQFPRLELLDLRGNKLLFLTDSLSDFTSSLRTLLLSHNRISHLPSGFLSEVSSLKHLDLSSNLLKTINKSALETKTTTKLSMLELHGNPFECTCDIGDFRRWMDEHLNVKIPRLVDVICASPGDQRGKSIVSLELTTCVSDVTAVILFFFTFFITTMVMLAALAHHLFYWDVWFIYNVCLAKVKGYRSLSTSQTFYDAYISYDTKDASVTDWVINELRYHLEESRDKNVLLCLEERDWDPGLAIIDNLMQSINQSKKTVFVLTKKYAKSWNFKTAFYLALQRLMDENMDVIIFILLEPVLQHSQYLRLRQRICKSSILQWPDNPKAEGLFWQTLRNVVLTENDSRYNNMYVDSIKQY

SMILES	EC50 [1] [nM]	further results
COCCc1nc2c(N)nc3ccccc3c2n1CCCN(Cc1ccc(CC(=O)OC)cc1)C(=O)CCN(C)C	158	
CCC[C@@H](CO)Nc1nc(N)nc(C)c1Cc1ccc(CN(C)C)cc1OC		EC50 [2]: 2.29 nM
CCCCc1nc2c(N)nc3ccccc3c2n1CCCN(Cc1cccc(C(=O)OC)c1)C(=O)CN(C)CCOC	158	
CCC[C@@H](CO)Nc1nc(N)nc(C)c1Cc1ccc(CNCCO)cc1OC		EC50 [2]: 95.5 nM
CCCCc1nc2c(N)nc(NCc3cccnc3)cc2n1Cc1ccccc1		EC50 [3]: 250 nM
CCCCc1nc2c(N)nc3ccccc3c2n1CCCN(CCCN(C)CC)Cc1cccc(C(=O)OC)c1	158	
CCCc1nc2c(N)nc3ccc(N)cc3c2s1		EC50 ([4]; hek-blue htlr8): 3.88 µM
CCCc1nc2c(NC(=O)CCN=[N+]=[N-])nc3ccccc3c2s1		EC50 ([4]; hek-blue htlr8): 2.23 µM
CCCCc1nc2c(N)nc3ccccc3c2n1CCCN(Cc1cccc(C(=O)OC)c1)C(=O)CN1CCC(O)C1 (stereo unspecified)	398	
CCCCc1nc2c(N)nc3ccccc3c2n1CCCN(Cc1cccc(C(=O)OC)c1)C(=O)CN1C[C@@H](C)O[C@@H](C)C1	1000	
CCCCc1nc2c(N)nc3ccccc3c2n1CCCN(Cc1cccc(C(=O)OC)c1)C(=O)CN1CCCN(S(C)(=O)=O)CC1	631	
CCC[C@@H](CCO)Nc1nc(N)nc(C)c1Cc1ccc(CN2CCCC2)cc1OC		EC50 [2]: < 1.95 nM
CCCCc1nc2c(N)nc3ccccc3c2n1CCCN(Cc1cccc(C(=O)OC)c1)C(=O)CN1CCC(O)CC1	501	
CCCCc1nc2c(N)nc3ccccc3c2n1CCCN(Cc1cccc(C(=O)OC)c1)C(=O)CN1CCCOCC1	398	
CCCCc1nc2c(N)nc3ccccc3c2n1CCCN(Cc1cccc(C(=O)OC)c1)C(=O)CN(CCO)CCO	1580	
CCCCc1nc2c(N)nc3ccccc3c2n1CCCN(CCCN(C)C)Cc1cccc(C(=O)OC)c1	251	
CCCCc1nc2c(N)nc3ccccc3c2n1CCCN(Cc1cccc(C(=O)OC)c1)C(=O)CN1CCCCC1	79.4	
CCCCc1nc2c(N)nc3ccccc3c2n1CCCN(Cc1cccc(C(=O)OC)c1)C(=O)CN1CCCN(C(C)=O)CC1	501	
CCCCc1nc2c(NC=O)nc3ccccc3c2s1		EC50 ([3]; hek-blue htlr7): 2540 nM
CCCCc1nc2c(N)nc3ccccc3c2n1CCCN(Cc1cccc(C(=O)OC)c1)C(=O)CN1CCN(C)CC1	79.4	
CCCCc1nc2c(N)nc3ccccc3c2n1CCCN(CCCN1CCN(C)CC1)Cc1cccc(C(=O)OC)c1	251	

SMILES	EC50 [1] [nM]	further results
CCCCCNc1nc(N)nc(C)c1Cc1cccc(CC(=O)OCCCCN(C)C)c1	31.6	
CCCC[C@@H](CCO)Nc1nc(N)nc(C)c1Cc1ccc(CC(=O)OCCCCN(C)C)cc1	25.1	
CCCC[C@@H](CCO)Nc1nc(N)nc(C)c1Cc1ccc(CC(=O)OCCCCN2CCN(C)CC2)cc1F	25.1	
CCCCCNc1nc(N)nc(C)c1CCCN(Cc1cccc(CC(=O)OC)c1)C(=O)CN1CCC[C@@H]1C(=O)OC	631	
CCCCc1nc2c(N)nc3ccccc3c2n1CCCN(Cc1cccc(C(=O)OC)c1)C(=O)CN1CCCN(C)CC1	251	
CCCCc1nc2c(N)nc3ccccc3c2n1CCCN(Cc1cccc(C(=O)OC)c1)C(=O)CN1CC(O)C1	1580	
CCCCc1nc2c(N)nc3ccccc3c2n1CCCN(CCCN1CCOCC1)Cc1cccc(C(=O)OC)c1	251	
CCCCc1nc2c(N)nc3ccccc3c2n1CCCN(Cc1cccc(C(=O)OC)c1)C(=O)CN1CCCCCC1	79.4	
CCC[C@@H](CCO)Nc1nc(N)nc(C)c1Cc1ccc(CN2CCN(C)CC2)cc1OC		EC50 [2]: < 1.95 nM
CCCCc1nc2c(N)nc(NCC3CCCCC3)cc2n1Cc1ccccc1		EC50 [3]: 320 nM
CCCCc1nc2c(N)nc3ccccc3c2n1CCCN(Cc1cccc(C(=O)OC)c1)C(=O)CN1CCN(S(C)(=O)=O)CC1	794	
Cc1nc2c(N)nc3ccccc3c2s1		EC50 ([3]; hek-blue htlr7): 10200 nM
CCCCc1nc2c(N)nc3ccccc3c2n1CCCN(Cc1cccc(C(=O)OC)c1)C(=O)CN1CCC(OC)CC1	200	
CCCC[C@@H](CO)Nc1nc(N)nc(C)c1Cc1ccc(CC(=O)OCCCCN(C)C)cc1	1260	
CCCCc1nc2c(N)nc3ccccc3c2n1CCCN(Cc1cccc(C(=O)OC)c1)C(=O)CN(C)C	39.8	
CCCc1nc2c(NC=O)nc3ccccc3c2s1		EC50 [4]: 0.88 µM
CCCCc1nc2c(N)nc3ccccc3c2n1CCCN(Cc1cccc(C(=O)OC)c1)C(=O)CN1CCC1	251	
CCCCc1nc2c(N)nc3ccccc3c2n1CCCN(Cc1cccc(C(=O)OC)c1)C(=O)CN1CC[C@@H](O)C1	398	
CCCC[C@@H](CCO)Nc1nc(N)nc(C)c1Cc1ccc(CC(=O)OCCC2CCN(C)CC2)cc1F	31.6	
CCCCCNc1nc(N)nc(C)c1CCCN(Cc1ccc(CC(=O)OC)cc1)C(=O)CN1CCCCC1	631	
CCCCc1nc2c(N)nc3ccccc3c2n1CCCN(Cc1cccc(C(=O)OC)c1)C1CCN(C)CC1	316	

SMILES	EC50 [1] [nM]	further results
CCCCc1nc2c(N)nc3ccccc3c2n1CCCN(Cc1cccc(C(=O)OC)c1)C(=O)CN(CCC)CCC	79.4	
CCCC[C@@H](CCO)Nc1nc(N)nc(C)c1Cc1ccc(CC(=O)OCC2CCN(C)CC2)cc1F	39.8	
CC[C@H](C)c1nc2c(N)nc3ccccc3c2s1		EC50 ([4]; hek-blue htlr8): 2.77 µM
CCCCc1nc2c(N)nc3ccccc3c2n1CCCN(Cc1cccc(C(=O)OC)c1)C(=O)CN1CCCC1	63.1	
CCCC[C@@H](CCO)Nc1nc(N)nc(C)c1Cc1ccc(CC(=O)OCCCCN(C)C)cc1F	200	
CCCCc1nc2c(N)nc3ccccc3c2n1CCCN(Cc1cccc(C(=O)OC)c1)C(=O)CN1CCC(C(=O)N(C)C)CC1	631	
CCCCc1nc2c(N)nc3ccccc3c2n1CCCN(Cc1cccc(C(=O)OC)c1)C(=O)CN1CCN(CCO)CC1	501	
CCCc1nc2c(N)nc3ccc(-n4cc([Si](C)(C)C)nn4)cc3c2s1		EC50 ([4]; hek-blue htlr8): 9.84 µM
CCCCCNc1nc(N)nc(C)c1CCCN(Cc1ccc(CC(=O)OC)cc1)C(=O)CC1CCN(C)CC1	794	
CCC[C@@H](CO)Nc1nc(N)nc(C)c1Cc1ccc(CNC2CNC2)cc1OC		EC50 [2]: 380 nM
CCCCc1nc2c(N)nc3ccccc3c2n1CCCN(Cc1cccc(C(=O)OC)c1)C(=O)CN(C)CCCC	126	
CCCCc1nc2c(N)nc3ccccc3c2n1CCCN(Cc1cccc(C(=O)OC)c1)C(=O)CN(C)C1CCOCC1	126	
CCCCc1nc2c(N)nc3ccccc3c2n1CCCN(Cc1cccc(C(=O)OC)c1)C(=O)CN1CCCN(C(=O)NCC)CC1	1260	
CCCCc1nc2c(N)nc3ccccc3c2n1CCCN(Cc1cccc(C(=O)OC)c1)C(=O)CN1CCN(C(C)=O)CC1	1260	
CCCCc1nc2c(N)nc(NCc3ccc(OC)cc3)cc2n1Cc1ccccc1		EC50 [3]: 75 nM
CCCc1nc2c(NS(C)(=O)=O)nc3ccccc3c2s1		EC50 ([4]; hek-blue htlr8): 10.6 µM
CCC[C@@H](CCO)Nc1nc(N)nc(C)c1Cc1ccc(CN(C)CCOC)cc1OC		EC50 [2]: < 1.95 nM
CCC[C@@H](CCO)Nc1nc(N)nc(C)c1Cc1ccc(CN2CCNCC2)cc1OC		EC50 [2]: 5.89 nM
CCC[C@@H](CCO)Nc1nc(N)nc(C)c1Cc1ccc(Cn2ccnc2)cc1OC		EC50 [2]: 2.75 nM
